Tests used:
Assay in all cases: Protein-lipid overlay
Type in all cases: binding
[1] = biological target: human TAPP1 C-terminal PH domain, mutant R212L (Arg212 to Leu), GST fusion (Homo sapiens, UniProt Q9HB21, R211L); details: FIG. 4B
Method: (§1) FIG. 4. Comparison of the phosphoinositide binding properties of the N-terminal and C-terminal PH domains of TAPP1 and TAPP2. The ability of wild type and mutant forms of full length (FL) and isolated N-terminal (NT) and C-terminal (CT) PH domains of TAPP1 and TAPP2 GST-fusion proteins to interact with phosphoinositides were analysed using a protein-lipid overlay. Serial dilutions of the indicated phosphoinositides (100 pmol, 50 pmol, 25 pmol, 12.5 pmol, 6.3 pmol, 3.1 pmol and 1.6 pmol) were spotted onto a nitrocellulose membrane which was then incubated with the indicated purified GST fusion proteins. The membranes were washed and the GST-fusion proteins bound to the membrane by virtue of their interactions with lipid were detected using a GST antibody. A representative experiment of three is shown. The isolated N-terminal PH domain of human TAPP1 comprises residues 1 to 147, the isolated C-terminal PH domain of human TAPP1 comprises residues 95 to 404, the isolated N-terminal PH domain of mouse TAPP2 comprises residues 1 to 131 and the isolated C-terminal PH of mouse TAPP2 comprises residues 174 to 425.
(§2) Protein-Lipid overlay. To assess the phosphoinositide binding properties of each PH domain, a protein-lipid overlay assay was performed using the GST fusion proteins as described previously. Briefly, 1 μl of lipid solution containing 1-100 pmol of phospholipids dissolved in a mixture of choroform:methanol:water (1:2:0.8) was spotted onto Hybond-C extra membrane and allowed to dry at room temperature for 1 h. The membrane was blocked in 3% (by mass) fatty acid-free BSA in TBST (50 mM Tris/HCl pH 7.5, 150 mM NaCl and 0.1% Tween-20 (by vol) for lh. The membrane was then incubated overnight at 4° C. with gentle agitation in the same solution containing 0.2 μg/ml of the indicated GST fusion protein. The membranes were washed 6 times over 30 min in TBST and then incubated for 1 h with 1/1000 dilution of anti-GST monoclonal antibody (Sigma). The membranes were washed as before, then incubated for 1 h with 1/5000 dilution of anti-mouse-HRP conjugate (Pierce). Finally, the membranes were washed 12 times over 1 h in TBST and the GST-fusion protein bound to the membrane by virtue of its interaction with phospholipid was detected by enhanced chemiluminescence.

[2] = biological target: human TAPP1 C-terminal PH domain, mutant W281L (Trp281 to Leu), GST fusion (Homo sapiens, UniProt Q9HB21, W280L); details: FIG. 4B
Method: as §1, §2

[3] = biological target: human TAPP1, full length, mutant R212L (Arg212 to Leu), GST fusion (Homo sapiens, UniProt Q9HB21, R211L); details: FIG. 4B
Method: as §1, §2

[4] = biological target: human TAPP1, full length, wild type, GST fusion (Homo sapiens, UniProt Q9HB21); details: FIG. 4A and Table 2
Method: as §1, §2

[5] = biological target: human TAPP1, full length, mutant R28L (Arg28 to Leu), GST fusion (Homo sapiens, UniProt Q9HB21, R28L); details: FIG. 4B
Method: as §1, §2

[6] = biological target: mouse TAPP2, full length, wild type, GST fusion (Mus musculus, UniProt Q9ERS5); details: FIG. 4C and Table 2
Method: as §1, §2

Sequence of human TAPP1 C-terminal PH domain, mutant R212L (Arg212 to Leu), GST fusion (Q9HB21 95-404 R211L): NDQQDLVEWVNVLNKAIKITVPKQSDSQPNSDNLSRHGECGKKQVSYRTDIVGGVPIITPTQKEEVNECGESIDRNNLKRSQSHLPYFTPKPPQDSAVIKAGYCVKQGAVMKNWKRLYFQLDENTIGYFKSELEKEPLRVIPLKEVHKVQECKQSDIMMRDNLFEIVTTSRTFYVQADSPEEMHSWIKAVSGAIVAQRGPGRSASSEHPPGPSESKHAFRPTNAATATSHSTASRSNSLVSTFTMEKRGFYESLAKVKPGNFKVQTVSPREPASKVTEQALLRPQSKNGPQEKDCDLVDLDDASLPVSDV
Sequence of human TAPP1, full length, mutant R28L (Arg28 to Leu), GST fusion (Q9HB21 whole entry R28L, the tested form may be a part): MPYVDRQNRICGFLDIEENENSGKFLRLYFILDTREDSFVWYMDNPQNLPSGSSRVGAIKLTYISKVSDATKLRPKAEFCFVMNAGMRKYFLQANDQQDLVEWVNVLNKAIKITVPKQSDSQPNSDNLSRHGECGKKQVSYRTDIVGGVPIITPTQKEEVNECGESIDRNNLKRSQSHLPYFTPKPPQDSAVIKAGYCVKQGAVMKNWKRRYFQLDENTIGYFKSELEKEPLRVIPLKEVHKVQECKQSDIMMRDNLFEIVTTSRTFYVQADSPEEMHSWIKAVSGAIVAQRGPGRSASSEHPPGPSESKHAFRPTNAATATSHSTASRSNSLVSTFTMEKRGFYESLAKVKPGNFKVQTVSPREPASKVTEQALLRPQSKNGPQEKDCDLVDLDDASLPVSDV
Sequence of mouse TAPP2, full length, wild type, GST fusion (Q9ERS5 whole entry, the tested form may be a part): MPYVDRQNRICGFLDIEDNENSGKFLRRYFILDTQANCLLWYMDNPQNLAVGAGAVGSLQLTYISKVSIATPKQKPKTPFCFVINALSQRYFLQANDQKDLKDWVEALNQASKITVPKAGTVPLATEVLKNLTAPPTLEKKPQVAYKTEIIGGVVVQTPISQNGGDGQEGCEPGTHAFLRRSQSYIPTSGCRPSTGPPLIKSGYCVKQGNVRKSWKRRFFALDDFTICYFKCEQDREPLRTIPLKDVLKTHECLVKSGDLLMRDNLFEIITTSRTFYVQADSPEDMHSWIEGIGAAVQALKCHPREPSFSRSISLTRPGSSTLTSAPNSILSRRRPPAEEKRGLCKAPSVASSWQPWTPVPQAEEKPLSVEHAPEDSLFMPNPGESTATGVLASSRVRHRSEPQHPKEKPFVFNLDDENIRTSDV
Sequence of human TAPP1, full length, wild type, GST fusion (Q9HB21 whole entry, the tested form may be a part): as the sequence (Q9HB21 whole entry R28L, the tested form may be a part) above, with L28R counted along it
Sequence of human TAPP1 C-terminal PH domain, mutant W281L (Trp281 to Leu), GST fusion (Q9HB21 95-404 W280L): as the sequence (Q9HB21 95-404 R211L) above, with L117R, W186L counted along it
Sequence of human TAPP1, full length, mutant R212L (Arg212 to Leu), GST fusion (Q9HB21 whole entry R211L, the tested form may be a part): as the sequence (Q9HB21 whole entry R28L, the tested form may be a part) above, with L28R, R211L counted along it

In the case of `CCCCCCCCCCCCCCCC(=O)OC[C@H](COP(=O)(O)O[C@H]1[C@H](O)[C@@H](O)[C@H](OP(=O)(O)O)[C@@H](OP(=O)(O)O)[C@H]1O)OC(=O)CCCCCCCCCCCCCCC` [PtdIns(3,4)P2], the “effect of mutation on interaction” value [1] is reported as “abolished the interaction”, the “effect of mutation on interaction” value [2] is reported as “abolished the interaction” and the “effect of mutation on interaction” value [3] is reported as “abolished the interaction”. For the same compound, the phosphoinositide binding [4] was “interacted specifically”, the “effect of mutation on interaction” value [5] was “did not affect the interaction” and the phosphoinositide binding [6] was “interacted specifically”.

From patent US20040106148A1, “Polypeptides” (priority 2000, published 2004)
